Assay results published in ChEMBL document CHEMBL4480376, “Studies on spiro[4.5]decanone prolyl hydroxylase domain inhibitors” (Medchemcomm, 2019).
Active and inactive are the calls of the source. No cut-off for these calls is given here.

Assays:
[1] = biological target: Egl nine homolog 1 (Homo sapiens) (UniProt Q9GZT9); assay: Inhibition of N-terminal His6-tagged truncated PHD2 (181 to 426 residues) (unknown origin) expressed in Escherichia coli BL21 DE3 using H1F1-alpha CODD as substrate preincubated for 15 mins followed by substrate addition and measured after 15 mins by mass spectrometry
[2] = biological target: Egl nine homolog 1 (Homo sapiens) (UniProt Q9GZT9); assay: Inhibition of N-terminal His6-tagged truncated PHD2 (181 to 426 residues) (unknown origin) expressed in Escherichia coli BL21 DE3 using H1F1-alpha NODD as substrate preincubated for 15 mins followed by substrate addition and measured after 15 mins by mass spectrometry
[3] = Inhibition of FIH (unknown origin) using HIF-1alpha CAD (D788 to L822 residues) as substrate; design: species or system Homo sapiens
[4] = biological target: T1, Lysine-specific demethylase 4A (Homo sapiens, UniProt O75164); assay: Inhibition of KDM4A (unknown origin) using H3 K9Me3 (1 to 15 residues) as substrate
T1 sequence (O75164 whole entry): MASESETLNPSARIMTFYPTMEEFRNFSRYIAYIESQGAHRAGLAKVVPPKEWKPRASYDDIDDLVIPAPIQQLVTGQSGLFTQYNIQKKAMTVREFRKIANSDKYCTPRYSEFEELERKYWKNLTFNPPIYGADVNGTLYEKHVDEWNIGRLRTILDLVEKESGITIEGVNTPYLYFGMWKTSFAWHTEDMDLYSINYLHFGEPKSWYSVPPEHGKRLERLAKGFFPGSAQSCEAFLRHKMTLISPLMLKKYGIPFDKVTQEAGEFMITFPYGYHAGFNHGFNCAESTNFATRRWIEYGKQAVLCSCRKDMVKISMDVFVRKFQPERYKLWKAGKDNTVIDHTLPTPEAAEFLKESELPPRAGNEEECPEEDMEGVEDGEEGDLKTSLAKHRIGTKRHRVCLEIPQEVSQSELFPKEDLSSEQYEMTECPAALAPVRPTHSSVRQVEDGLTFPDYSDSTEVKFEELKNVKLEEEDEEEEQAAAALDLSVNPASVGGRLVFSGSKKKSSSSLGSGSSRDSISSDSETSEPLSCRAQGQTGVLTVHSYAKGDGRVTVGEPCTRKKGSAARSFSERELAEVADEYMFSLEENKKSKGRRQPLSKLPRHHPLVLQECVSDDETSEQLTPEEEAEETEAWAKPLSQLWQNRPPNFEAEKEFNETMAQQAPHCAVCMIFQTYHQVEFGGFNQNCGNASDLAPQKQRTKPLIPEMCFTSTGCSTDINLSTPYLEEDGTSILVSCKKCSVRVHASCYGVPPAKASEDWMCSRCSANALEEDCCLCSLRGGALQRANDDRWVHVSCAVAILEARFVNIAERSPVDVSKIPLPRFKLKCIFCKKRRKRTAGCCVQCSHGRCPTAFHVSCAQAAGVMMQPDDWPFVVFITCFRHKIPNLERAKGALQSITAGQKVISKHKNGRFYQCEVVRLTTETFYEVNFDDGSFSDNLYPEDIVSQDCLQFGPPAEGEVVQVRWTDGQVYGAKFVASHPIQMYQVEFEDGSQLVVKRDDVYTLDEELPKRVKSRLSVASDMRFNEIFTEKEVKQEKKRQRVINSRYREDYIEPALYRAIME

Sequence of Egl nine homolog 1 (Homo sapiens) (Q9GZT9 2-426 limits assumed): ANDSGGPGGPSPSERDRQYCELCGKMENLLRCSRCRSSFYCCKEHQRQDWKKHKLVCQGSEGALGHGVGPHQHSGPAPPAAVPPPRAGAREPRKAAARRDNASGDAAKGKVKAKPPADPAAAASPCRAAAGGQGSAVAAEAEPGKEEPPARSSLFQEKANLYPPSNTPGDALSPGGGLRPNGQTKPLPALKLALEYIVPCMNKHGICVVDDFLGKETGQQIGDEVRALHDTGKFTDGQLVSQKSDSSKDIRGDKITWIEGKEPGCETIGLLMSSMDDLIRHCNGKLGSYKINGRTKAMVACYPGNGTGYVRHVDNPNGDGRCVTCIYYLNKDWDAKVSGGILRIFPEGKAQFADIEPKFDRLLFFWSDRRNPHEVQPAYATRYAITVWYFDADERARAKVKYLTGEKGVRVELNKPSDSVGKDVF

| SMILES | inhibition [1] | inhibition [2] | IC50 [3] [µM] | IC50 [4] [µM] |
| --- | --- | --- | --- | --- |
| O=C(NCc1ccc(-c2ccccc2)cc1)C1CCN(Cc2ccccc2O)CC1 | inactive | inactive | – | – |
| O=C1N(c2ccc(-c3ccccc3)cc2)C(=O)C2(CCN(Cc3ccccc3O)CC2)N1c1ncccn1 | – | – | > 25 | 12.3 |
| O=C1N(c2ccc(-c3ccccc3)cc2)C(=O)C2(CCN(Cc3cccs3)CC2)N1c1ncccn1 | – | – | > 25 | > 25 |
| O=C(Nc1ccc(-c2ccccc2)cc1)C1CCCN(Cc2ccccc2O)C1 (centres undefined) | inactive | inactive | – | – |
| COc1ccnc(N2C(=O)N(c3ccc(-c4ccccc4)cc3)C(=O)C23CCN(Cc2ncccc2C)CC3)n1 | – | – | 21.6 | > 25 |
| O=C(Nc1ccc(-c2ccccc2)cc1)C1CCN(Cc2ncccc2O)CC1 | inactive | inactive | – | – |
| Cc1cccnc1CN1CCCC(C(=O)Nc2ccc(-c3ccccc3)cc2)C1 (centres undefined) | inactive | inactive | – | – |
| Cc1cccnc1CN1CCC(C(=O)Nc2ccc(-c3ccccc3)cc2)CC1 | inactive | inactive | – | – |
| O=C(NCc1ccc(-c2ccccc2)cc1)C1CCN(Cc2ncccc2O)CC1 | inactive | inactive | – | – |
| O=C1N(c2ccc(-c3ccccc3)cc2)C(=O)C2(CCN(Cc3ncc[nH]3)CC2)N1c1ncccn1 | – | – | > 25 | > 25 |
| Cn1ccnc1CN1CCC2(CC1)C(=O)N(c1ccc(-c3ccccc3)cc1)C(=O)N2c1ncccn1 | – | – | > 25 | > 25 |
| O=C(Nc1ccc(-c2ccccc2)cc1)C1CCCN(Cc2ncccc2O)C1 (centres undefined) | inactive | inactive | – | – |
| Cc1cccnc1CN1CCC(C(=O)NCc2ccc(-c3ccccc3)cc2)CC1 | inactive | inactive | – | – |
| Cn1ccnc1CN1CCC2(CC1)NC(=O)N(c1ccc(-c3ccccc3)cc1)C2=O | – | – | > 25 | > 25 |
| O=C1N(c2ccc(-c3ccccc3)cc2)C(=O)C2(CCNCC2)N1c1ncccn1 | – | – | > 25 | > 25 |
| Cc1cccnc1CN1CCC2(CC1)C(=O)N(c1ccc(-c3ccccc3)cc1)C(=O)N2c1cc(C(=O)O)ccn1 | – | – | > 25 | > 25 |
| Cc1cccnc1CN1CCC2(CC1)NC(=O)N(c1ccc(-c3ccccc3)cc1)C2=O | – | – | > 25 | > 25 |
| COc1cccc(CN2CCC3(CC2)C(=O)N(c2ccc(-c4ccccc4)cc2)C(=O)N3c2ncccn2)n1 | – | – | > 25 | > 25 |
| O=C(Nc1ccc(-c2ccccc2)cc1)C1CCN(Cc2ccccc2O)CC1 | inactive | inactive | – | – |
| Cc1cccnc1CN1CCC2(CC1)C(=O)N(c1ccc(-c3ccccc3)cc1)C(=O)N2c1ncccn1 | – | – | > 25 | – |
